# Where two headings read alike, the source gives them in different places.
# How the values were obtained:
# [1] = molecular target: HRAS (Homo sapiens (Human), UniProt P01112); assay: SOS-catalyzed nucleotide exchange assay (GNE), HRAS-WT; type: biochemical; conditions: TR-FRET, 60 min preincubation
# Description: (§1) Procedure for SOS-Catalyzed Nucleotide Exchange Assay for KRAS-WT, G12C/D/V/A/R/S, G13D, Q61H, HRAS-WT, and NRAS-WT
# (§2) Recombinant KRAS-G12C protein used in this assay has an additional triple mutation (C51S/C80L/C118S). Whereas KRAS-WT, G12D/V/A/S/R, G13D, Q61H, HRAS and NRAS are in context of their WT protein sequence background. Specifically, the SOS-catalyzed nucleotide exchange assay utilizes a preformed TR-FRET complex containing a specific biotinylated RAS protein (KRAS-WT, G12C/V/D/A/S/R, G13D, Q61H, HRAS-WT, NRAS-WT; described above) with Bodipy-GDP, and Terbium-streptavidin. Compounds are preincubated with this complex for 60 minutes. Subsequently, recombinant human SOS protein and unlabeled GTP are added to initiate the exchange reaction. Small molecule inhibitors stabilize the Bodipy-GDP complex whereas the untreated protein rapidly exchanges Bodipy-GDP for unlabeled GTP resulting in reduced TR-FRET signal.
# (§3) To assemble the preformed TR-FRET complexes, each biotinylated RAS protein is diluted to 2 μM in an EDTA Buffer (20 mM HEPES pH 7.5, 50 mM sodium chloride, 10 mM EDTA, and 0.01% Tween) and incubated at room temperature for one hour. This mixture is then further diluted to 90 nM in an Assay Buffer (20 mM HEPES pH 7.5, 150 mM sodium chloride, 10 mM magnesium chloride, and 0.005% Tween) containing 15 nM of Terbium-Streptavidin (Invitrogen, catalog #PV3577) and 900 nM of Bodipy-GDP (Invitrogen, catalog #G22360) and incubated at room temperature for six hours. It should be noted that this preformed TR-FRET complex for each of the RAS protein were made ahead of time, aliquoted and stored at −80° C. until the day of the experiment.
# (§4) Each test compound (10 mM stock in DMSO) is diluted in DMSO to make a final-10-point, 3-fold dilution and is acoustically dispensed into a 384-well assay plate (Corning, catalog #3820) using an Echo 550 (Labcyte). Each well of the assay plate receives 3 μL of a specific 3×RAS preformed TR-FRET complex and 3 μL of Assay Buffer and is incubated at room temperature for 60 minutes (preincubation time). Each well then receives 3 μL of 3× recombinant human SOS protein and GTP (Sigma, G8877) in Assay Buffer and is incubated at room temperature for 30 minutes (G13D), 60 minutes (KRAS WT/G12C/D, H/NRAS) or 90 minutes for G12A/R/S/V and Q61H. The final reaction in each well of 9 μL consists of 3 mM GTP, specific Ras and SOS proteins in the following concentrations: KRAS-G12C/SOS=3 nM/40 nM, KRAS-WT and G12D/SOS=1 nM/40 nM, KRAS-G12V/SOS=1.25 nM/160 nM, KRAS-G12A/S/SOS=1 nM/160 nM, KRAS-G12R/SOS=1 nM/320 nM, KRAS-Q61H/SOS=1 nM/320 nM, KRAS-G13D/SOS=1.25 nM/[…], HRAS-WT and NRAS-WT=1.25 nM/40 nM.
# (§5) The time-resolved fluorescence resonance energy transfer (TR-FRET) signal is measured on an Envision (PerkinElmer) plate reader: Excitation filter=340 nm; emission1=495 nm; emission2=520 nm; dichroic mirror=D400/D505; delay time=[…]. The signal of each well is determined as the ratio of the emission at 520 nm to that at 495 nm. Percent effect of each well is determined after normalization to control wells containing DMSO (no effect) or a saturating concentration of inhibitor (max effect). The apparent effect as a function of compound concentration is fit to a four-parameter logistic equation.
# [2] = molecular target: KRAS G13D (Homo sapiens (Human), UniProt P01116, G13D); assay: SOS-catalyzed nucleotide exchange assay (GNE), KRAS G13D; type: biochemical; conditions: TR-FRET, 60 min preincubation
# Description: as §1, §2, §3, §4, §5
# [3] = system: MKN-1 cells (amplified wild-type KRAS); assay: Cellular phospho-ERK assay, MKN-1 cells; type: cell-based; conditions: 2 h, p-ERK vs. total ERK, read-out: MKN1 pERK IC50
# Procedure: Procedure for Cellular Phospho-ERK Assay in KRAS Wild Type and Mutant (G12D, G12V) Cell Lines
# MKN-1 cells (JCRB JCRB0252) containing amplified wild-type KRAS, were cultured in growth medium that contains RPMI 1640-GlutaMAX™-I (ThermoFisher Scientific 61870) containing 10% heat inactivated fetal bovine serum (ThermoFisher Scientific 10091148), 1 mM sodium pyruvate and 10 mM HEPES. AsPC-1 cells (ATCC® CRL-1682™), containing homozygous KRAS-G12D activating mutation, were cultured in T150 flask in growth medium (RPMI medium 1640-GlutaMAX™-I (ThermoFisher Scientific 61870) containing 10% fetal bovine serum (ThermoFisher Scientific 10091148)). SW620 cells (ATCC® CRL-227™) containing homozygous KRAS-G12V activating mutation, were cultured in growth medium that contains RPMI 1640-GlutaMAX™-I (ThermoFisher Scientific 61870) containing 10% heat inactivated fetal bovine serum (ThermoFisher Scientific 10091148).
# Cells for the assay were harvested in growth medium after TrypLE (ThermoFisher scientific 12604021) digestion and were seeded in a 384-well collagen coated cell culture plate (Corning 356702) at a density of 10,000-15,000 cells/[…]/well, and incubated at 37° C., 5% CO2 overnight. The compound (with 10 mM stock concentration) dose-response titrations were prepared [30 μM final ERK detection assay concentration and 1:3 dilutions, 10-point dose response] and appropriate amounts (270 nL) of test compounds were dispensed in a 384-well intermediate plate using an Echo 550 liquid handler. 30 μL/well of RPMI medium 1640-GlutaMAX™-I was added to the intermediate plate and the contents of the intermediate plate (10 μL/well) were then transferred to the 384-well collagen coated cell culture plate, which was incubated at 37° C., 5% CO2 for 2 h. After removal of medium from the collagen coated cell culture plate, cells were lysed in lysis buffer from Alpha SureFire® Ultra™ Multiplex p-ERK and total ERK assay kit (PerkinElmer MPSU-PTERK) containing Halt™ Protease and Phosphatase inhibitor cocktail (ThermoFisher Scientific 78446) at room temperature with constant shaking at 300 rpm for 30 minutes. The cell lysates were then transferred to an OptiPlate-384 plate (PerkinElmer 6005620), and the phosphorylation of ERK (p-ERK) and total ERK levels were detected by Alpha SureFire® Ultra™ Multiplex p-EEK kit and total ERK assay kit (PerkinElmer MPSU-PTERK) following the manufacturer's protocol. Assay plates were read on a EnVision Multimode Plate Reader (PerkinElmer), and the ratio of p-ERK vs. total ERK in each well was used as the final readout. Dose response curves were analyzed using a 4-parameter logistic model to calculate IC50 values using Spotfire software.
# Sequence of HRAS (P01112 other isoform, or with tags, fused parts or gaps): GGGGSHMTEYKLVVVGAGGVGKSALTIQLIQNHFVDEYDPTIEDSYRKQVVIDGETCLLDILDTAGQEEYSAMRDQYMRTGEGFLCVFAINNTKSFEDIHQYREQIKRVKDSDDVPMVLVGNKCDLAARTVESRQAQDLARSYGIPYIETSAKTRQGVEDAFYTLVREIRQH
# Sequence of KRAS G13D (P01116 other isoform, or with tags, fused parts or gaps G13D (already in the parent)): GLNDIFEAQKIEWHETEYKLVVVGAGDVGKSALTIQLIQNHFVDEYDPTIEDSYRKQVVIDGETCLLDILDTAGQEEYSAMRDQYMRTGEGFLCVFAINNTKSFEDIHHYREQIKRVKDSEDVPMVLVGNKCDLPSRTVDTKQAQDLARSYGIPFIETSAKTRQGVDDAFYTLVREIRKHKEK
smiles,measurement,setting,value
"CCc1c(F)ccc2cc3[nH]nc(C)c3c(-c3nc4c5c(nc(OC[C@@]67CCCN6C[C@H](F)C7)nc5c3F)N3CCCOC[C@H]3CO4)c12 [Ex-6, (8aS)-5-(5-ethyl-6-fluoro-3-methyl-1H-benzo[f]indazol-4-yl)-4-fluoro-2-(((2R,7aS)-2-fluorotetrahydro-1H-pyrrolizin-7a(5H)-yl)methoxy)-8a,9,12,13-tetrahydro-8H,11H-7,10-dioxa-1,3,6,13a-tetraazanaphtho[1,8-ab]heptalene]",IC50,[1],5520 nM
same,IC50,[2],1.9 nM
same,IC50,[3]; Homo sapiens,14 nM
"F/C=C1/CN2CCC[C@@]2(COc2nc3c4c(nc(-c5c(C6CC6)c(Cl)cc6[nH]ncc56)c(F)c4n2)OC[C@@H]2COCCCN32)C1 [Ex-1, (8aS)-5-(6-chloro-5-cyclopropyl-1H-indazol-4-yl)-4-fluoro-2-(((S,Z)-2-(fluoromethylene)tetrahydro-1H-pyrrolizin-7a(5H)-yl)methoxy)-8a,9,12,13-tetrahydro-8H,11H-7,10-dioxa-1,3,6,13a-tetraazanaphtho[1,8-ab]heptalene]",IC50,[1],> 11100 nM
same,IC50,[2],3.7 nM
same,IC50,[3],9.1 nM
"CCc1c(F)ccc2cc3[nH]ncc3c(-c3nc4c5c(nc(OC[C@@]67CCCN6C[C@H](F)C7)nc5c3F)N3CCCOC[C@H]3CO4)c12 [Ex-2, (8aS)-5-(5-ethyl-6-fluoro-1H-benzo[f]indazol-4-yl)-4-fluoro-2-(((2R,7aS)-2-fluorotetrahydro-1H-pyrrolizin-7a(5H)-yl)methoxy)-8a,9,12,13-tetrahydro-8H,11H-7,10-dioxa-1,3,6,13a-tetraazanaphtho[1,8-ab]heptalene]",IC50,[1],2740 nM
same,IC50,[2],1 nM
same,IC50,[3],7.9 nM
"CCc1c(F)ccc2cc3[nH]ncc3c(-c3nc4c5c(nc(OC[C@@]67CCCN6C/C(=C\F)C7)nc5c3F)N3CCCOC[C@H]3CO4)c12 [Ex-4, (8aS)-5-(5-ethyl-6-fluoro-1H-benzo[f]indazol-4-yl)-4-fluoro-2-(((S,Z)-2-(fluoromethylene)tetrahydro-1H-pyrrolizin-7a(5H)-yl)methoxy)-8a,9,12,13-tetrahydro-8H,11H-7,10-dioxa-1,3,6,13a-tetraazanaphtho[1,8-ab]heptalene]",IC50,[1],1270 nM
same,IC50,[2],0.89 nM
same,IC50,[3]; Homo sapiens,6.6 nM
"F/C=C1\CN2CCC[C@@]2(COc2nc3c4c(nc(-c5c(C6(F)CC6)c(Cl)cc6[nH]ncc56)c(F)c4n2)OC[C@@H]2COCCCN32)C1 [Ex-5, (8aS)-5-(6-chloro-5-(1-fluorocyclopropyl)-1H-indazol-4-yl)-4-fluoro-2-(((S,Z)-2-(fluoromethylene)tetrahydro-1H-pyrrolizin-7a(5H)-yl)methoxy)-8a,9,12,13-tetrahydro-8H,11H-7,10-dioxa-1,3,6,13a-tetraazanaphtho[1,8-ab]heptalene]",IC50,[1],4680 nM
same,IC50,[2],1.2 nM
same,IC50,[3]; Homo sapiens,4.3 nM
"CCc1c(F)ccc2cc3[nH]nc(C)c3c(-c3nc4c5c(nc(OC[C@@]67CCCN6C/C(=C\F)C7)nc5c3F)N3CCCOC[C@H]3CO4)c12 [Ex-7, (8aS)-5-(5-ethyl-6-fluoro-3-methyl-1H-benzo[f]indazol-4-yl)-4-fluoro-2-(((S,Z)-2-(fluoromethylene)tetrahydro-1H-pyrrolizin-7a(5H)-yl)methoxy)-8a,9,12,13-tetrahydro-8H,11H-7,10-dioxa-1,3,6,13a-tetraazanaphtho[1,8-ab]heptalene]",IC50,[1],2180 nM
same,IC50,[2],2.4 nM
same,IC50,[3],12 nM
"Fc1c(-c2c(C3CC3)c(Cl)cc3[nH]ncc23)nc2c3c(nc(OC[C@@]45CCCN4C[C@H](F)C5)nc13)N1CCCOC[C@H]1CO2 [Ex-3, (8aS)-5-(6-chloro-5-cyclopropyl-1H-indazol-4-yl)-4-fluoro-2-(((2R,7aS)-2-fluorotetrahydro-1H-pyrrolizin-7a(5H)-yl)methoxy)-8a,9,12,13-tetrahydro-8H,11H-7,10-dioxa-1,3,6,13a-tetraazanaphtho[1,8-ab]heptalene]",IC50,[3]; Homo sapiens,9.7 nM
